Test results as given in BindingDB's records for doi:10.1016/j.bmcl.2012.11.092 (Vanderbilt University Medical Center, 2012).
Values joined by “and” are separate entries in the source; they are usually repeats but may differ in a detail not shown here. Equal entries are not always repeated.

Molecular target: T1, Muscarinic acetylcholine receptor M1 (Homo sapiens, UniProt P11229)
T1 sequence (P11229 whole entry): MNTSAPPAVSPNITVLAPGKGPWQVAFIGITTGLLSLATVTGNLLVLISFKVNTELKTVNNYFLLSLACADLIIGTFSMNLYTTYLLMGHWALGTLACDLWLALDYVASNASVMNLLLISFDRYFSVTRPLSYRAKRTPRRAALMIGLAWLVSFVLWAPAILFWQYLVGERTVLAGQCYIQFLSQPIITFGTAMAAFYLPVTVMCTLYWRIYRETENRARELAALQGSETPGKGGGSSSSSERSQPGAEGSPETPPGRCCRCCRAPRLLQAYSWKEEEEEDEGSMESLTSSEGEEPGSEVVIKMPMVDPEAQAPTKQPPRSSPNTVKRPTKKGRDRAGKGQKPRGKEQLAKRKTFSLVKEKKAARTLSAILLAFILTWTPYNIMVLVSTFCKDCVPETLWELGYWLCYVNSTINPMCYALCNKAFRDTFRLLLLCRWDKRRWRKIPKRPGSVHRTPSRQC
Test: Positive allosteric modulator activity at human muscarinic M1 receptor by calcium mobilization assay

## Cn1cc(-c2ccc(CN3C(=O)C(O)(C(F)(F)F)c4ccccc43)c(F)c2)cn1 (stereo unspecified)
  EC50: 3.31 µM and 3.3 µM
